Laboratory results reported in patent publication US8829195B2, “Compounds and compositions for inhibiting the activity of ABL1, ABL2 and BCR-ABL1” (Novartis AG, priority 2012, dated 2014).

Columns and labels:
ABL1 (64-515) [1] = molecular target: T1, ABL1 (64-515) (Homo sapiens, UniProt P00519); assay: Radio ABL1 (64-515) radiometric filter-binding assay; assay type: biochemical
T1 construct: 3.5 nM ABL (ABL(64-515), produced in-house from E. coli); His6 followed by a PreScission protease cleavage site (N, cleaved yes); made in house; host or cells: E. coli (BL21 (DE3) according to b733)

ABL1 (64-515) [2] = molecular target: T1, ABL1 (64-515); assay: Caliper ABL1 (64-515) microfluidic mobility shift assay; assay type: biochemical
Ba/F3-BCR-ABL1-WT cells = molecular target: T2, Ba/F3-BCR-ABL1-WT cells (Homo sapiens, UniProt P00519); assay: Ba/F3-BCR-ABL1-WT cell proliferation assay; assay type: cell-based, murine; settings: 48 hours; read-out: Ba/F3-BCR-ABL1-WT IC50
T2 construct: fused on or other part: P11274 (Breakpoint cluster region protein)

[3] = molecular target: T3, Ba/F3-BCR-ABL1-T315I cells (Homo sapiens, UniProt P00519, T315I, cells depend on it); assay: Ba/F3-BCR-ABL1-T315I cell proliferation assay; assay type: cell-based, murine; settings: 48 hours; read-out: Ba/F3-BCR-ABL1-T315I IC50
T3 construct: A similar approach was used to generate Ba/F3 cells that depend on a BCR-ABL1 variant in which threonine 315 is replaced with isoleucine; fused on or other part: P11274 (Breakpoint cluster region protein)

[4] = comparison of ortho substitution on R3/R4 ring

Row | SMILES | IC50 (ABL1 (64-515) [1]) [nM] | IC50 (ABL1 (64-515) [2]; Table of Biochemical Data) [nM] | GI50 (Ba/F3-BCR-ABL1-WT cells) [nM] | GI50 [3] [nM] | IC50 (ABL1 (64-515) [2]; [4]) [nM]
1 | Cc1cc(-c2cc(C(=O)Nc3ccc(OC(F)(F)Cl)cc3)ccc2N2CC[C@@H](O)C2)[nH]n1 [Example 22, (R)—N-(4-(Chlorodifluoromethoxy)phenyl)-4-(3-hydroxypyrrolidin-1-yl)-3-(3-methyl-1H-pyrazol-5-yl)benzamide] | 6 | < 0.64 | – | – | –
2 | O=C(Nc1ccc(SC(F)(F)F)cc1)c1cnc(N2CC[C@H](CO)C2)c(-c2ccn[nH]2)c1 [Example 12, (S)-6-(3-(Hydroxymethyl)pyrrolidin-1-yl)-5-(1H-pyrazol-5-yl)-N-(4-((trifluoromethyl)thio)phenyl)nicotinamide] | 6 | 0.5 | 1.9 | 38 | –
3 | O=C(Nc1ccc(SC(F)(F)F)cc1)c1cnc(N2CC[C@@H](O)C2)c(-c2ccn[nH]2)c1 [Example 11, (R)-6-(3-Hydroxypyrrolidin-1-yl)-5-(1H-pyrazol-5-yl)-N-(4-((trifluoromethyl)thio)phenyl)nicotinamide] | < 3 | < 0.13 | 1 | 38 | –
4 | O=C(Nc1ccc(C(F)(F)C(F)(F)F)cc1)c1cnc(N2CC[C@@H](O)C2)c(-c2ccn[nH]2)c1 [Example 16, (R)-6-(3-Hydroxypyrrolidin-1-yl)-N-(4-(perfluoroethyl)phenyl)-5-(1H-pyrazol-5-yl)nicotinamide] | 12 | < 0.13 | 4.1 | 92 | –
5 | O=C(Nc1ccc(OC(F)(F)F)c(F)c1)c1cnc(N2CC[C@@H](O)C2)c(-c2ccn[nH]2)c1 [Example 13, (R)—N-(3-Fluoro-4-(trifluoromethoxy)phenyl)-6-(3-hydroxypyrrolidin-1-yl)-5-(1H-pyrazol-5-yl)nicotinamide] | 10 | 0.6 | 9.6 | 150 | –
6 | O=C(Nc1ccc(OC(F)(F)F)cc1)c1cnc(N2CC[C@H](CO)C2)c(-c2ccn[nH]2)c1 [Example 7, (S)-6-(3-(Hydroxymethyl)pyrrolidin-1-yl)-5-(1H-pyrazol-5-yl)-N-(4-(trifluoromethoxy)phenyl)nicotinamide] | < 3 | 0.4 | 6 | 132 | –
7 | CC(C)[C@H](N)C(=O)O[C@@H]1CCN(c2ncc(C(=O)Nc3ccc(OC(F)(F)Cl)cc3)cc2-c2ccn[nH]2)C1 [Example 38] | 4 | 2.5 | – | – | –
8 | O=C(Nc1ccc(OC(F)(F)F)c(F)c1)c1cnc(N2CC[C@H](CO)C2)c(-c2ccn[nH]2)c1 [Example 14, (S)—N-(3-Fluoro-4-(trifluoromethoxy)phenyl)-6-(3-(hydroxymethyl)pyrrolidin-1-yl)-5-(1H-pyrazol-5-yl)nicotinamide] | 10 | 0.9 | 18.9 | 218 | –
9 | Cc1cc(OC(F)(F)F)ccc1NC(=O)c1cnc(N2CC[C@@H](O)C2)c(-c2ccn[nH]2)c1 | – | – | – | – | 1800
10 | COC(=O)C1CCN(c2ncc(C(=O)Nc3ccc(OC(F)(F)Cl)cc3)cc2-c2ccn[nH]2)C1 (stereo not drawn) [Example 36, Methyl 1-(5-((4-(chlorodifluoromethoxy)phenyl)carbamoyl)-3-(1H-pyrazol-5-yl)pyridin-2-yl)pyrrolidine-3-carboxylate] | – | 2.1 | 1.9 | 71 | –
11 | O=C(Nc1ccc(OC(F)(F)F)cc1Cl)c1cnc(N2CC[C@@H](O)C2)c(-c2ccn[nH]2)c1 | – | – | – | – | 1600
12 | O=C(Nc1ccc(SC(F)(F)F)nc1)c1cnc(N2CC[C@@H](O)C2)c(-c2ccn[nH]2)c1 [Example 32, (R)-6-(3-Hydroxypyrrolidin-1-yl)-5-(1H-pyrazol-5-yl)-N-(6-((trifluoromethyl)thio)pyridin-3-yl)nicotinamide] | 3 | 13 | – | – | –
13 | O=C(Nc1ccc(OC(F)(F)F)cc1)c1ccc(N2CC[C@@H](O)C2)c(-c2ccn[nH]2)c1 [Example 1, (R)-4-(3-Hydroxypyrrolidin-1-yl)-3-(1H-pyrazol-5-yl)-N-(4-(trifluoromethoxy)phenyl)benzamide] | < 3 | 2.2 | – | – | –
14 | O=C(Nc1ccc(OC(F)(F)F)cc1)c1cnc(N2CC[C@@H](OP(=O)(O)O)C2)c(-c2ccn[nH]2)c1 [Example 40, (R)-1-(3-(1H-Pyrazol-5-yl)-5-(4-(trifluoromethoxy)phenyl)carbamoyl)pyridin-2-yl)pyrrolidin-3-yl dihydrogen phosphate] | – | 2.1 | – | – | –
15 | O=C(Nc1ccc(OC(F)(F)Cl)cc1)c1ccc(N2CC[C@@H](O)C2)c(-c2ccn[nH]2)c1 [Example 20, (R)—N-(4-(Chlorodifluoromethoxy)phenyl)-4-(3-hydroxypyrrolidin-1-yl)-3-(1H-pyrazol-5-yl)benzamide] | 1.3 | 0.4 | – | – | –

The remaining lines, values ahead:

Row | IC50 (ABL1 (64-515) [1]) [nM] | IC50 (ABL1 (64-515) [2]; Table of Biochemical Data) [nM] | GI50 (Ba/F3-BCR-ABL1-WT cells) [nM] | GI50 [3] [nM] | IC50 (ABL1 (64-515) [2]; [4]) [nM] | SMILES
16 | 2 | 1.1 | – | – | – | Cn1nccc1-c1cc(C(=O)Nc2ccc(OC(F)(F)Cl)cc2)cnc1N1CC[C@@H](O)C1 [Example 27, (R)—N-(4-(Chlorodifluoromethoxy)phenyl)-6-(3-hydroxypyrrolidin-1-yl)-5-(1-methyl-1H-pyrazol-5-yl)nicotinamide]
17 | 3.4 | 1.3 | 11.7 | 327 | – | Cc1cn[nH]c1-c1cc(C(=O)Nc2ccc(OC(F)(F)F)cc2)cnc1N1CC[C@@H](O)C1 [Example 4, (R)-6-(3-Hydroxypyrrolidin-1-yl)-5-(4-methyl-1H-pyrazol-5-yl)-N-(4-(trifluoromethoxy)phenyl)nicotinamide]
18 | 6 | 0.6 | 1.5 | 32 | – | Cc1cn[nH]c1-c1cc(C(=O)Nc2ccc(OC(F)(F)Cl)cc2)cnc1N1CC[C@@H](O)C1 [Example 33, (R)—N-(4-(Chlorodifluoromethoxy)phenyl)-6-(3-hydroxypyrrolidin-1-yl)-5-(4-methyl-1H-pyrazol-5-yl)nicotinamide]
19 | 5 | 1.8 | 13.5 | 236 | – | O=C(Nc1ccc(OC(F)(F)C(F)(F)F)cc1)c1cnc(N2CC[C@@H](O)C2)c(-c2ccn[nH]2)c1 [Example 19, (R)-6-(3-Hydroxypyrrolidin-1-yl)-N-(4-(perfluoroethoxy)phenyl)-5-(1H-pyrazol-5-yl)nicotinamide]
20 | – | 0.5 | – | – | – | O=C(Nc1ccc(OC(F)(F)Cl)cc1)c1cnc(N2CCC(C(=O)O)C2)c(-c2ccn[nH]2)c1 (stereo not drawn) [Example 37]
21 | 4 | 0.7 | 7.5 | 133 | – | Cc1cc(-c2cc(C(=O)Nc3ccc(OC(F)(F)F)cc3)cnc2N2CC[C@@H](O)C2)[nH]n1 [Example 3, (R)-6-(3-Hydroxypyrrolidin-1-yl)-5-(3-methyl-1H-pyrazol-5-yl)-N-(4-(trifluoromethoxy)phenyl)nicotinamide]
22 | 0.4 | 4.3 | 31.8 | 715 | – | CC(F)(F)Oc1ccc(NC(=O)c2cnc(N3CC[C@@H](O)C3)c(-c3ccn[nH]3)c2)cc1 [Example 30, (R)—N-(4-(1,1-Difluoroethoxy)phenyl)-6-(3-hydroxypyrrolidin-1-yl)-5-(1H-pyrazol-5-yl)nicotinamide]
23 | 9 | 0.9 | – | – | – | O=C(Nc1ccc(OC(F)(F)Cl)cc1)c1cnc(N2CC[C@@H](O)C2)c(-c2cnn(CCO)c2)c1 [Example 29, (R)—N-(4-(Chlorodifluoromethoxy)phenyl)-5-(1-(2-hydroxyethyl)-1H-pyrazol-4-yl)-6-(3-hydroxypyrrolidin-1-yl)nicotinamide]
24 | 7 | 1.2 | 8.1 | 134 | – | O=C(Nc1ccc(OC(F)(F)F)cc1)c1cnc(N2CC[C@@H](O)C2)c(-c2[nH]ncc2F)c1 [Example 5, (R)-5-(4-Fluoro-1H-pyrazol-5-yl)-6-(3-hydroxypyrrolidin-1-yl)-N-(4-(trifluoromethoxy)phenyl)nicotinamide]
25 | 12 | 10.4 | 9 | 227 | – | O=C(Nc1ccc(OC(F)(F)Cl)cc1)c1cnc(N2CC[C@@H](O)C2)c(-c2cc(C(F)(F)F)n[nH]2)c1 [Example 26, (R)—N-(4-(Chlorodifluoromethoxy)phenyl)-6-(3-hydroxypyrrolidin-1-yl)-5-(3-(trifluoromethyl)-1H-pyrazol-5-yl)nicotinamide]
26 | 5 | 0.4 | 1.1 | 22 | – | O=C(Nc1ccc(OC(F)(F)Cl)cc1)c1ccc(N2CC[C@@H](O)C2)c(-c2[nH]ncc2F)c1 [Example 24, (R)—N-(4-(Chlorodifluoromethoxy)phenyl)-3-(4-fluoro-1H-pyrazol-5-yl)-4-(3-hydroxypyrrolidin-1-yl)benzamide]
27 | 3 | 3.2 | – | – | – | Cn1cc(-c2cc(C(=O)Nc3ccc(OC(F)(F)F)cc3)cnc2N2CC[C@@H](O)C2)cn1 [Example 6, (R)-6-(3-Hydroxypyrrolidin-1-yl)-5-(1-methyl-1H-pyrazol-4-yl)-N-(4-(trifluoromethoxy)phenyl)nicotinamide]
28 | 3 | 1.3 | – | – | – | O=C(Nc1ccc(OC(F)(F)Cl)cc1)c1cnc(N2CC[C@@H](OP(=O)(O)O)C2)c(-c2ccn[nH]2)c1 [Example 39, (R)-1-(5-(4-(Chlorodifluoromethoxy)phenyl)carbamoyl)-3-(1H-pyrazol-5-yl)pyridin-2-yl)pyrrolidin-3-yl dihydrogen phosphate]
